These results are taken from patent US6852333B1, “Agents and methods for promoting production gains in animals” (The Horticulture and Food Research Institute of New Zealand …, priority 1999, dated 2005).

This experiment concerns faecal egg count (parasites). Nature of the experiment: Nitric oxide donor and anthelmintic efficacy, time until faecal egg count rose to around 600 (Experiment 15). Particulars: 0.0001 g per kg liveweight oral with anthelmintic every four months. The experiment is classed as in vivo, sheep. The text has this:
In a separate experiment 20 sheep (mixed male and females) received standard anthelmintic treatments similar to experiments 3 and 4, with anthelmintics and treatments given every four months. Treatment in 10 of these animals consisted of the anthelmintic dosing and S-nitroso-N-acetylpenicillamine, a nitric oxide donor at a dose of 0.0001 g per kg liveweight in an oral form. The other 10 received the anthelmintic and a glucose control. Anthelmintic successfulness in terms of time from treatment until faecal egg count rose to around 600 as described in experiments 3 and 4 was examined. […] FIG. 22 illustrates this.

In the case of `CC(=O)N[C@H](C(=O)O)C(C)(C)SN=O` (racemic) [S-nitroso-N-acetylpenicillamine], the “effectiveness of anthelmintic (time until faecal egg count rose to around 600)” value is on record as “better effectiveness of anthelmintic than control animals”.
